Assay results taken from ChEMBL document CHEMBL4483862, “Open-source discovery of chemical leads for next-generation chemoprotective antimalarials” (2018).

System: Plasmodium berghei
Assay: Luciferase/luciferin-expressing antifolate-resistant parasites were used to infect a culture of HepG2 cells that were pre-incubated with compounds. Infected hepatocytes emit light due to the luciferase reaction. Assay results are presented as the percent inhibition of light emission compared to control. […]
Format: functional
Conditions: sporozoite; for IC90: read-out: LUCIFERASE INFECTION ASSAY - IC90

SMILES | IC90 [µM] | further results
c1ccc(-c2cc(N3CCCCC3)c3ccccc3n2)nc1 | > 11.4 | IC50 (PBLUC_HILL_SLOPE 9.83, PBLUC_R_SQUARED 0.0291, read-out: LUCIFERASE INFECTION ASSAY - IC50): 10.3 µM
O=C(Nc1nc2ccccc2[nH]1)c1cc(-c2ccccn2)nc2ccccc12 | 9.7 | IC50 (PBLUC_HILL_SLOPE 9.86, PBLUC_R_SQUARED 0.717, read-out: LUCIFERASE INFECTION ASSAY - IC50): 7.76 µM
N#CC(C#N)=NNc1ccc(F)c(F)c1F | 14.5 | IC50 (PBLUC_HILL_SLOPE 9.99, PBLUC_R_SQUARED 0.46, read-out: LUCIFERASE INFECTION ASSAY - IC50): 11.6 µM
COc1ccc(C2(c3ccc(OC)cc3)NC(=O)N(CC(=O)c3cc(C)n(C4CC4)c3C)C2=O)cc1 | > 10 | IC50 (PBLUC_HILL_SLOPE 10.1, PBLUC_R_SQUARED 0.388, read-out: LUCIFERASE INFECTION ASSAY - IC50): 8.48 µM
O=c1c(Cl)c(NCC(c2ccco2)N2CCCCC2)cnn1-c1nc2ccccc2[nH]1 (stereo not given) | > 10 | IC50 (PBLUC_HILL_SLOPE 10.1, PBLUC_R_SQUARED 0.23, read-out: LUCIFERASE INFECTION ASSAY - IC50): 8.87 µM
Cn1c(N)c(C(=O)c2cccc(S(=O)(=O)N3CCc4ccccc43)c2)c(=O)[nH]c1=O | > 10 | IC50 (PBLUC_HILL_SLOPE 10, PBLUC_R_SQUARED 0.0166, read-out: LUCIFERASE INFECTION ASSAY - IC50): > 10 µM
COc1ccc(OC)c(CN2CCN(c3nn4cc(-c5ccccc5)nc4s3)CC2)c1 | > 10 | IC50 (PBLUC_HILL_SLOPE 9.65, 2.13, PBLUC_R_SQUARED 0.339, 0.240, read-out: LUCIFERASE INFECTION ASSAY - IC50): 6.69 µM
OCc1ccc(-c2cn3c(-c4cccc(OC(F)(F)F)c4)cnc3cn2)cc1 | 4.85 | IC50 (PBLUC_HILL_SLOPE 9.63, PBLUC_R_SQUARED 0.631, read-out: LUCIFERASE INFECTION ASSAY - IC50): 3.86 µM
N=C1NC(=Nc2ccc(Cl)c(Cl)c2)c2ccccc21 | > 10 | IC50 (PBLUC_HILL_SLOPE 9.86, PBLUC_R_SQUARED 0.113, read-out: LUCIFERASE INFECTION ASSAY - IC50): 9.53 µM
N#CC1=C2Sc3ccccc3N2C(O)(C(F)(F)F)C(C(=O)C(F)(F)F)=C1 (stereo not given) | 4.76 | IC50 (PBLUC_HILL_SLOPE 9.79, 8.06, PBLUC_R_SQUARED 0.178, 0.335, read-out: LUCIFERASE INFECTION ASSAY - IC50): 3.71 µM
CCCCCCCCc1nnc(NC(=O)c2nccnc2N)s1 | 4.58 | IC50 (PBLUC_HILL_SLOPE 9.5, PBLUC_R_SQUARED 0.438, read-out: LUCIFERASE INFECTION ASSAY - IC50): 3.63 µM
COc1ccc(-c2cnc3cnc(-c4cccc(NS(C)(=O)=O)c4)cn23)cc1 | 3.7 | IC50 (PBLUC_HILL_SLOPE 9.6, PBLUC_R_SQUARED 0.49, read-out: LUCIFERASE INFECTION ASSAY - IC50): 2.94 µM
CCN(CC)CCCNS(=O)(=O)c1c(C)n[nH]c1C | > 10 | IC50 (PBLUC_HILL_SLOPE 10.1, PBLUC_R_SQUARED 0.0336, read-out: LUCIFERASE INFECTION ASSAY - IC50): > 10 µM
CNc1snc(C)c1C(=O)NCC(c1cccs1)c1c[nH]c2ccccc12 (stereo not given) | 9.68 | IC50 (PBLUC_HILL_SLOPE 9.74, PBLUC_R_SQUARED 0.4, read-out: LUCIFERASE INFECTION ASSAY - IC50): 7.72 µM
CC1CCN(Cc2nc(SC3CCCC3)c3c4c(sc3n2)CCC4)CC1 | > 10 | IC50 (PBLUC_HILL_SLOPE 9.85, PBLUC_R_SQUARED 0.167, read-out: LUCIFERASE INFECTION ASSAY - IC50): 9.59 µM
O=C(NCc1ccc(F)c(Cl)c1)Nc1csc([N+](=O)[O-])c1 | > 10 | IC50 (PBLUC_HILL_SLOPE 9.52, PBLUC_R_SQUARED 0.452, read-out: LUCIFERASE INFECTION ASSAY - IC50): 8.04 µM
Cc1sc2nc(-c3cccs3)nc(N3CCCN(CC(=O)NC(C)C)CC3)c2c1C | > 10 | IC50 (PBLUC_HILL_SLOPE 9.52, PBLUC_R_SQUARED 0.368, read-out: LUCIFERASE INFECTION ASSAY - IC50): 8.07 µM
O=C(CCCNC(=O)c1ccsc1)NNC(=O)c1ccccc1O | > 10 | IC50 (PBLUC_HILL_SLOPE 9.95, PBLUC_R_SQUARED 0.0276, read-out: LUCIFERASE INFECTION ASSAY - IC50): > 10 µM
O=C1OC(C=NC23CC4CC(CC(C4)C2)C3)c2ccccc21 (stereo not given) | > 11.2 | IC50 (PBLUC_HILL_SLOPE 9.77, PBLUC_R_SQUARED 0.255, read-out: LUCIFERASE INFECTION ASSAY - IC50): 9.81 µM
Cc1c(-n2c(SCn3nnc4ccccc4c3=O)nc3ccccc3c2=O)c(=O)n(-c2ccccc2)n1C | > 10 | IC50 (PBLUC_HILL_SLOPE 10.1, PBLUC_R_SQUARED 0.287, read-out: LUCIFERASE INFECTION ASSAY - IC50): 9.23 µM

SMILES | IC90 [µM] | further results
CCN(c1ccccc1)S(=O)(=O)c1ccc(OCC(=O)N(C)Cc2nc3ccccc3s2)cc1 | > 10 | IC50 (PBLUC_HILL_SLOPE 9.53, PBLUC_R_SQUARED 0.61, read-out: LUCIFERASE INFECTION ASSAY - IC50): 9.27 µM
O=C(c1cc2c(=O)n3ccccc3nc2s1)N(c1ccccn1)C1CCCCC1 | > 10 | IC50 (PBLUC_HILL_SLOPE 9.6, PBLUC_R_SQUARED 0.179, read-out: LUCIFERASE INFECTION ASSAY - IC50): 9.45 µM
COc1cc(-c2cc(-c3ccc(F)cc3)cnc2N)ccc1O | 4.78 | IC50 (PBLUC_HILL_SLOPE 9.98, PBLUC_R_SQUARED 0.631, read-out: LUCIFERASE INFECTION ASSAY - IC50): 3.84 µM
CCCC(=O)Nc1ccc(C(=O)C(C)SC2=NN/C(=C3\C=Nc4ccccc43)N2c2ccc(OCC)cc2)cc1 (stereo not given) | > 10 | IC50 (PBLUC_HILL_SLOPE 9.99, PBLUC_R_SQUARED 0.53, read-out: LUCIFERASE INFECTION ASSAY - IC50): 8.08 µM
CCn1c2ccc(C(=O)N/N=C/c3cn(-c4ccccc4)nc3-c3ccc(OC(F)F)cc3)cc2c[n+]1C | > 10 | IC50 (PBLUC_HILL_SLOPE 9.98, PBLUC_R_SQUARED 0.817, read-out: LUCIFERASE INFECTION ASSAY - IC50): 8.1 µM
COc1ccc(-c2cnc3cnc(-c4ccc(C(=O)NC5CC5)cc4)cn23)cc1 | 3.59 | IC50 (PBLUC_HILL_SLOPE 9.57, PBLUC_R_SQUARED 0.525, read-out: LUCIFERASE INFECTION ASSAY - IC50): 2.85 µM
COc1ccc(Cc2nn3c(C(=S)NCCCN4CCOCC4)c(-c4ccc(Cl)cc4)c4c3n2CCCC4)cc1 | > 10 | IC50 (PBLUC_HILL_SLOPE 10, PBLUC_R_SQUARED 0.392, read-out: LUCIFERASE INFECTION ASSAY - IC50): 8.06 µM
CCCn1nc(C(=O)Nc2cccc(-c3nc4ccccc4[nH]3)c2)c2ccccc2c1=O | 4.7 | IC50 (PBLUC_HILL_SLOPE 9.6, PBLUC_R_SQUARED 0.205, read-out: LUCIFERASE INFECTION ASSAY - IC50): 3.74 µM
CC(C)(C)c1ccccc1NC(=O)Nc1nc(C(N)Cc2ccc(C(F)(F)F)cc2)cs1 (stereo not given) | 3.44 | IC50 (PBLUC_HILL_SLOPE 9.7, PBLUC_R_SQUARED 0.271, read-out: LUCIFERASE INFECTION ASSAY - IC50): 2.74 µM
CC(C)(O)C#Cc1ccc(/C=N/Nc2ccc(I)cc2)cc1 | > 8.16 | IC50 (PBLUC_HILL_SLOPE 9.96, PBLUC_R_SQUARED 0.415, read-out: LUCIFERASE INFECTION ASSAY - IC50): 7.16 µM
Cc1[nH]c2ccc(F)cc2c(=O)c1I | 1.32 | IC50 (PBLUC_HILL_SLOPE 10, PBLUC_R_SQUARED 0.604, read-out: LUCIFERASE INFECTION ASSAY - IC50): 1.06 µM
Cc1cnc(NC(=O)Cc2ccc3c(c2)CCC(C)(C)O3)s1 | 4.6 | IC50 (PBLUC_HILL_SLOPE 9.94, PBLUC_R_SQUARED 0.592, read-out: LUCIFERASE INFECTION ASSAY - IC50): 3.68 µM
Cc1ccc(C(=O)Nc2nc3cc4c(cc3s2)OCCO4)s1 | > 10 | IC50 (PBLUC_HILL_SLOPE 9.57, PBLUC_R_SQUARED 0.436, read-out: LUCIFERASE INFECTION ASSAY - IC50): 8.59 µM
Cn1nc(SCC(=O)NN)c(=O)n(C)c1=O | 3.54 | IC50 (PBLUC_HILL_SLOPE 9.87, PBLUC_R_SQUARED 0.424, read-out: LUCIFERASE INFECTION ASSAY - IC50): 2.84 µM
CNC(=O)c1ccc(CN(Cc2ccco2)Cc2cc3ccc(C)c(C)c3nc2Cl)cc1 | 1.48 | IC50 (PBLUC_HILL_SLOPE 9.58, PBLUC_R_SQUARED 0.657, read-out: LUCIFERASE INFECTION ASSAY - IC50): 0.741 µM
CC(=O)NC(C)CCc1ccc(-c2csc(-c3ccc(NC(=O)C4CC4)cc3)n2)cc1 (stereo not given) | 0.146 | IC50 (PBLUC_HILL_SLOPE 9.6, PBLUC_R_SQUARED 0.721, read-out: LUCIFERASE INFECTION ASSAY - IC50): 0.116 µM
Nc1ccc(-c2cn3c(-c4cccc(OC(F)(F)F)c4)cnc3cn2)cn1 | 4.23 | IC50 (PBLUC_HILL_SLOPE 9.99, PBLUC_R_SQUARED 0.381, read-out: LUCIFERASE INFECTION ASSAY - IC50): 3.39 µM
O=C1N(Cc2ccccn2)C(=O)C2(CCN(C3CCc4ccccc4C3)CC2)N1Cc1ccccc1 (stereo not given) | > 6.87 | IC50 (PBLUC_HILL_SLOPE 10, PBLUC_R_SQUARED 0.136, read-out: LUCIFERASE INFECTION ASSAY - IC50): 6.39 µM
Cc1cc(=O)n2nc(CSc3nc4ccc(Cl)cc4c(=O)n3CC(C)C)sc2n1 | 4.07 | IC50 (PBLUC_HILL_SLOPE 10, PBLUC_R_SQUARED 0.71, read-out: LUCIFERASE INFECTION ASSAY - IC50): 3.27 µM
COc1ccc2c(c1)C(=O)/C(=C\c1ccc(OCc3nccn3C)cc1)CO2 | > 10 | IC50 (PBLUC_HILL_SLOPE 10.1, PBLUC_R_SQUARED 0.104, read-out: LUCIFERASE INFECTION ASSAY - IC50): 8.44 µM
